From publication PMC3486926 (Journal of the American Chemical Society, 2012)

Biological target: LmbR (C-His6-LmbR) (Streptomyces lincolnensis, UniProt Q54372)
Experiment: HPLC with charged aerosol detection, ESI-MS of product
Format: biochemical
Settings: C5 acceptor, 10 mM; co-substrate F6P 10 mM

For `O=P(O)(O)OC[C@H]1OC(O)[C@H](O)[C@@H]1O` (stereo partly drawn) [8a, D-ribose 5-phosphate], the “HPLC with charged aerosol detection, ESI-MS of product” value was “LmbR can accept both R5P (8a) and X5P (8b) as the C5 substrate”.

With `O=P(O)(O)OC[C@H]1OC(O)[C@H](O)[C@H]1O` (stereo partly drawn) [8b, D-xylose 5-phosphate] the “HPLC with charged aerosol detection, ESI-MS of product” value was “LmbR can accept both R5P (8a) and X5P (8b) as the C5 substrate”.
